Assay results: PubChem BioAssay (NCI)
“And” between values parts separate entries of the source, which are not always exact repeats. Equal values may be shown once.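 Cells were grown in 96-well plates and exposed to each compound for 48 hours at five concentrations; endpoints were interpolated linearly between bracketing concentrations, or set to the highest concentration if not reached. GI50 marks 50% less growth. TGI: total growth inhibition.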

Legend:
Assay in all cases: NCI-60 cell line screen, 48 h
SW-620 colon = tested on: SW-620 colon
OVCAR-8 ovarian = tested on: OVCAR-8 ovarian
NCI-H460 lung = tested on: NCI-H460 lung
IGROV1 ovarian = tested on: IGROV1 ovarian
OVCAR-3 ovarian = tested on: OVCAR-3 ovarian
HCT-116 colon = tested on: HCT-116 colon
TK-10 renal = tested on: TK-10 renal
SNB-75 CNS = tested on: SNB-75 CNS
UO-31 renal = tested on: UO-31 renal
MDA-MB-231 breast = tested on: MDA-MB-231 breast

SMILES	TGI (SW-620 colon)	TGI (OVCAR-8 ovarian)	TGI (NCI-H460 lung)	TGI (IGROV1 ovarian)	TGI (OVCAR-3 ovarian)	TGI (HCT-116 colon)	TGI (TK-10 renal)	TGI (SNB-75 CNS)	TGI (UO-31 renal)	GI50 (SW-620 colon)	GI50 (OVCAR-8 ovarian)	GI50 (NCI-H460 lung)	GI50 (IGROV1 ovarian)	GI50 (OVCAR-3 ovarian)	GI50 (HCT-116 colon)	GI50 (TK-10 renal)	GI50 (MDA-MB-231 breast)	TGI (MDA-MB-231 breast)	GI50 (UO-31 renal)	GI50 (SNB-75 CNS)
C=CCOCCCC(=O)C(=[N+]=[N-])C(=O)OC	> 100 µM	> 100 µM	> 100 µM	> 100 µM	> 100 µM	> 100 µM	> 100 µM	> 100 µM	> 100 µM	–	–	–	–	–	–	–	–	–	–	–
O=C1CC(N2C(=O)/C(=C/C(Cl)=C\c3ccc([N+](=O)[O-])cc3)SC2=S)C(=O)N1c1ccc(Cl)cc1 (stereo not given)	3.89 µM	> 100 µM	> 100 µM	3.26 µM	2.62 µM	3.04 µM	8.63 µM	–	3.3 µM	0.508 µM	0.832 µM	3.3 µM	1.03 µM	0.721 µM	1.35 µM	2.79 µM	3.75 µM	47.8 µM	1.07 µM	–
COC1(OC)C[C@H](C)[C@@]23O[C@]24c2cc(O)c5c(c2N[C@H]3C#C/C=C\C#C[C@]14O)C(=O)c1ccccc1C5=O	0.167 µM and 0.215 µM	0.048 µM and 0.0756 µM	–	0.16 µM	0.77 µM	0.148 µM	0.401 µM	0.00927 µM and 0.0318 µM	0.0176 µM	0.00373 µM	0.0043 µM	0.005 µM	–	–	–	–	0.0199 µM	–	–	0.0028 µM
O=c1c2c([nH]c3nccn13)CCCC2	> 10 µM	> 10 µM	> 10 µM	> 10 µM	> 10 µM	> 10 µM	> 10 µM	> 10 µM	> 10 µM	–	–	–	–	–	–	–	–	> 10 µM	–	–
Cc1cc(C)n(C(=O)C(C)Sc2nnc(SC(C)C(=O)n3nc(C)cc3C)s2)n1 (stereo not given)	> 100 µM	> 100 µM	> 100 µM	> 100 µM	> 100 µM	> 100 µM	> 100 µM	> 100 µM	> 100 µM	–	–	–	–	–	–	–	–	> 100 µM	–	–
C=C1C(C2(C)C=CC(=O)OC3(C)COC(=O)CC32)C(OC=O)C(OC(=O)C(O)C(C)CC)C2(C)C(c3ccoc3)CC(OC(C)=O)C12O (stereo not given)	> 100 µM	> 100 µM	> 100 µM	> 100 µM	> 100 µM	> 100 µM	> 100 µM	> 100 µM	> 100 µM	–	–	–	–	–	–	–	–	> 100 µM	–	–
COc1ccc(/C=c2/[nH]c(=O)/c(=C\c3ccc(OCc4ccccc4)cn3)[nH]c2=O)cc1	> 100 µM	> 100 µM	> 100 µM	–	> 100 µM	> 100 µM	> 100 µM	61 µM	> 100 µM	–	–	–	–	–	–	–	–	> 100 µM	–	–
CN(C)CCNc1c([N+](=O)[O-])cc2c3c(cccc13)C(=O)N(CCN(C)C)C2=O	5.59 µM	3.27 µM	2.26 µM	8.17 µM	5.44 µM	15.3 µM	–	4.18 µM	4.2 µM	–	–	–	–	–	–	–	–	–	–	–
S=C(NCCCCCCNC(=S)Nc1c2ccccc2nc2ccccc12)Nc1c2ccccc2nc2ccccc12	> 100 µM	> 100 µM	> 100 µM	> 100 µM	> 100 µM	> 100 µM	–	> 100 µM	> 100 µM	–	–	–	–	–	–	–	–	–	–	–
Cc1c2c(cc3c1[nH]c1ccccc13)C(c1ccc(F)cc1)=NCC2	5.46 µM	6.68 µM	2.45 µM	3.73 µM	2.93 µM	5.41 µM	–	4.39 µM	4.08 µM	–	–	–	–	–	–	–	–	–	–	–
O=C1CS(=O)(=O)C(c2cccc(Oc3ccccc3)c2)N1c1cccc(Cl)c1Cl (stereo not given)	> 100 µM	60.1 µM	> 100 µM	–	57.3 µM	40.9 µM	67.3 µM	92.3 µM	> 100 µM	–	–	–	–	–	–	–	–	70.6 µM	–	–
OC(c1ccc(-c2ccccc2)cc1)(c1ccc(-c2ccccc2)cc1)c1ccc(-c2ccccc2)cc1	–	> 100 µM	> 100 µM	> 100 µM	> 100 µM	> 100 µM	> 100 µM	–	> 100 µM	–	–	–	–	–	–	–	–	> 100 µM	–	–
CCn1cc(C(=O)O)c(=O)c2cc(F)c(N3CCN(Cn4c(O)c(N=NC(=O)c5ccncc5)c5cc(Cl)ccc54)CC3)cc21	> 100 µM	> 100 µM	> 100 µM	61.6 µM	> 100 µM	> 100 µM	71.3 µM	70.1 µM	> 100 µM	–	–	–	–	–	–	–	–	> 100 µM	–	–
N#CCc1[nH]nc2nc(SCc3ccccc3)nc(N3CCCCC3)c12	35 µM	> 100 µM	37.9 µM	–	37.4 µM	32.4 µM	40.5 µM	33.7 µM	35.9 µM	–	–	–	–	–	–	–	–	–	–	–
O=C1OC(c2ccccc2)=N/C1=C/c1cccs1	> 100 µM	> 100 µM	> 100 µM	> 100 µM	> 100 µM	–	> 100 µM	> 100 µM	–	–	–	–	–	–	–	–	–	–	–	–
COc1nc(C#CCCCC#N)nc(OC)n1	32.5 µM	61.4 µM	89.1 µM	41.8 µM	28 µM	41.3 µM	37.7 µM	75.7 µM	24.9 µM	–	–	–	–	–	–	–	–	29.3 µM	–	–
OC1C=C2C3CN(Cc4cc5c(cc43)OCO5)[C@H]2C[C@@H]1O (stereo not given in full)	> 100 µM	91.2 µM	13.2 µM	> 100 µM	> 100 µM	25.1 µM	39.3 µM	4.56 µM	71.4 µM	–	–	–	–	–	–	–	–	68.5 µM	–	–
